# Data reported in patent US7414061B2, “Aryl-isoxazol-4-yl-imidazole derivatives” (Hoffmann-La Roche Inc., priority 2005, dated 2008).
# Molecular target: T1, GABA A receptor α5β3γ2 (hα5) (Homo sapiens, UniProt P18507+P31644)
# T1 construct: expressed in transfected cells; host or cells: HEK293 (transiently transfected), membrane preparation
# Experiment: [3H]flumazenil competition binding assay, human GABA A α5β3γ2
# Conditions: displacement of [3H]flumazenil (0.5 nM) from HEK293 cell membranes expressing α5β3γ2; means of two determinations; read-out: Ki[nM] hα5
# Method: The affinity of compounds at GABA A receptor subtypes was measured by competition for [3H]flumazenil (85 Ci/mmol; Roche) binding to HEK293 cells expressing rat (stably transfected) or human (transiently transfected) receptors of composition α1β3γ2, α2β3γ2, α3β3γ2 and α5β3γ2.
# Cell pellets were suspended in Krebs-tris buffer (4.8 mM KCl, 1.2 mM CaCl2, 1.2 mM MgCl2, 120 mM NaCl, 15 mM Tris; pH 7.5; binding assay buffer), homogenized by polytron for ca. 20 sec on ice and centrifuged for 60 min at 4° C. (50000 g; Sorvall, rotor: SM24=20000 rpm). The cell pellets were resuspended in Krebs-tris buffer and homogenized by polytron for ca. 15 sec on ice. Protein was measured (Bradford method, Bio-Rad) and aliquots of 1 mL were prepared and stored at −80° C.
# Radioligand binding assays were carried out in a volume of […] (96-well plates) which contained […] of cell membranes, [3H]flumazenil at a concentration of 1 nM for α1, α2, α3 subunits and 0.5 nM for α5 subunits and the test compound in the range of […]. Nonspecific binding was defined by 10^−5 M diazepam and typically represented less than 5% of the total binding. Assays were incubated to equilibrium for 1 hour at 4° C. and harvested onto GF/C uni-filters (Packard) by filtration using a Packard harvester and washing with ice-cold wash buffer (50 mM Tris; pH 7.5). After drying, filter-retained radioactivity was detected by liquid scintillation counting. Ki values were calculated using Excel-Fit (Microsoft) and are the means of two determinations.
row,SMILES,Ki
1,"Cc1onc(-c2ccccc2)c1-c1cn(-c2cccc(Br)c2)cn1 [Example 7, 4-[1-(3-Bromo-phenyl)-1H-imidazol-4-yl]-5-methyl-3-phenyl-isoxazole]",30.9 nM
2,"Cc1onc(-c2ccccc2)c1-c1cn(-c2ccc(C(F)(F)F)cc2)c(COCc2ccccc2)n1 [Example 64, 4-[2-Benzyloxymethyl-1-(4-trifluoromethyl-phenyl)-1H-imidazol-4-yl]-5-methyl-3-phenyl-isoxazole]",14.7 nM
3,"Cc1onc(-c2ccc(Br)cc2)c1-c1cn(-c2ccc([N+](=O)[O-])cc2)cn1 [Example 50, 3-(4-Bromo-phenyl)-5-methyl-4-[1-(4-nitro-phenyl)-1H-imidazol-4-yl]-isoxazole]",21.6 nM
4,"Cc1onc(-c2ccc(Br)cc2)c1-c1cn(-c2ncccn2)cn1 [Example 51, 2-{4-[3-(4-Bromo-phenyl)-5-methyl-isoxazol-4-yl]-imidazol-1-yl}-pyrimidine]",28.5 nM
5,"Cc1onc(-c2ccccc2)c1-c1cn(-c2ccc(C#N)cc2)cn1 [Example 16, 4-[4-(5-Methyl-3-phenyl-isoxazol-4-yl)-imidazol-1-yl]-benzonitrile]",15.1 nM
6,"Cc1onc(-c2ccccc2)c1-c1cn(-c2ncccn2)cn1 [Example 33, 2-[4-(5-Methyl-3-phenyl-isoxazol-4-yl)-imidazol-1-yl]-pyrimidine]",15 nM
7,"N#Cc1ccc(-n2cnc(-c3c(-c4ccccc4)noc3CO)c2)cc1 [Example 139, 4-[4-(5-Hydroxymethyl-3-phenyl-isoxazol-4-yl)-imidazol-1-yl]-benzonitrile]",28.2 nM
8,"Cc1ccc(COCc2nc(-c3c(-c4ccccc4)noc3C)cn2-c2ccc([N+](=O)[O-])cc2)cc1 [Example 153, 5-Methyl-4-[2-(4-methyl-benzyloxymethyl)-1-(4-nitro-phenyl)-1H-imidazol-4-yl]-3-phenyl-isoxazole]",17.3 nM
9,"Cc1onc(-c2ccccc2)c1-c1cn(-c2ncccn2)c(COCc2ccccc2)n1 [Example 66, 2-[2-Benzyloxymethyl-4-(5-methyl-3-phenyl-isoxazol-4-yl)-imidazol-1-yl]-pyrimidine]",6.7 nM
10,"Cc1onc(-c2ccccc2)c1-c1cn(-c2ccc([N+](=O)[O-])cc2)c(COCc2ccc(F)cc2)n1 [Example 154, 4-[2-(4-Fluoro-benzyloxymethyl)-1-(4-nitro-phenyl)-1H-imidazol-4-yl]-5-methyl-3-phenyl-isoxazole]",13.5 nM
11,"Cc1onc(-c2ccccc2)c1-c1cn(-c2cccc(C(F)(F)F)c2)cn1 [Example 10, 5-Methyl-3-phenyl-4-[1-(3-trifluoromethyl-phenyl)-1H-imidazol-4-yl]-isoxazole]",20.4 nM
12,"CCc1onc(-c2ccc(F)cc2)c1-c1cn(-c2ccc(C(F)(F)F)cc2)cn1 [Example 133, 5-Ethyl-3-(4-fluoro-phenyl)-4-[1-(4-trifluoromethyl-phenyl)-1H-imidazol-4-yl]-isoxazole]",29.8 nM
13,"Cc1onc(-c2ccccc2F)c1-c1cn(-c2ncccn2)cn1 [Example 39, 2-{4-[3-(2-Fluoro-phenyl)-5-methyl-isoxazol-4-yl]-imidazol-1-yl}-pyrimidine]",18.3 nM
14,"Cc1ccc(-n2cnc(-c3c(-c4ccc(F)cc4)noc3C)c2)cc1[N+](=O)[O-] [Example 131, 3-(4-Fluoro-phenyl)-5-methyl-4-[1-(4-methyl-3-nitro-phenyl)-1H-imidazol-4-yl]-isoxazole]",21.5 nM
15,"Cc1onc(-c2ccc(F)cc2)c1-c1cn(-c2cccnc2)cn1 [Example 124, 3-{4-[3-(4-Fluoro-phenyl)-5-methyl-isoxazol-4-yl]-imidazol-1-yl}-pyridine]",27.2 nM
16,"Cc1onc(-c2ccccc2)c1-c1cn(-c2ccc([N+](=O)[O-])cc2)c(COCc2cccc(F)c2)n1 [Example 158, 4-[2-(3-Fluoro-benzyloxymethyl)-1-(4-nitro-phenyl)-1H-imidazol-4-yl]-5-methyl-3-phenyl-isoxazole]",17 nM
17,"Cc1onc(-c2ccccc2)c1-c1cn(-c2ccc([N+](=O)[O-])cc2)c(COCc2ccncc2)n1 [Example 165, 4-[4-(5-Methyl-3-phenyl-isoxazol-4-yl)-1-(4-nitro-phenyl)-1H-imidazol-2-ylmethoxymethyl]-pyridine]",18.2 nM

# Further lines, results first:
row,Ki,SMILES
1,24 nM,"COc1ccc(-n2cnc(-c3c(-c4ccccc4F)noc3C)c2)cc1 [Example 38, 3-(2-Fluoro-phenyl)-4-[1-(4-methoxy-phenyl)-1H-imidazol-4-yl]-5-methyl-isoxazole]"
2,9.1 nM,"CC(=O)c1ccc(-n2cnc(-c3c(-c4ccc(Br)cc4)noc3C)c2)cc1 [Example 49, 1-(4-{4-[3-(4-Bromo-phenyl)-5-methyl-isoxazol-4-yl]-imidazol-1-yl}-phenyl)-ethanone]"
3,16.7 nM,"Cc1onc(-c2ccccc2)c1-c1cn(-c2ccc(C(=O)NCC3CC3)cc2)cn1 [Example 71, N-Cyclopropylmethyl-4-[4-(5-methyl-3-phenyl-isoxazol-4-yl)-imidazol-1-yl]-benzamide]"
4,31.8 nM,"Cc1onc(-c2ccccc2)c1-c1cn(-c2cccc(C(=O)NC3CC3)c2)cn1 [Example 84, N-Cyclopropyl-3-[4-(5-methyl-3-phenyl-isoxazol-4-yl)-imidazol-1-yl]-benzamide]"
5,15.1 nM,"COC(=O)c1cccc(-n2cnc(-c3c(-c4ccccc4)noc3C)c2)c1 [Example 11, 3-[4-(5-Methyl-3-phenyl-isoxazol-4-yl)-imidazol-1-yl]-benzoic acid methyl ester]"
6,9.9 nM,"CCc1onc(-c2ccccc2)c1-c1cn(-c2ccc(C(C)=O)cc2)cn1 [Example 30, 1-{4-[4-(5-Ethyl-3-phenyl-isoxazol-4-yl)-imidazol-1-yl]-phenyl}-ethanone]"
7,21 nM,"COc1ccc(-n2cnc(-c3c(-c4ccccc4)noc3C)c2)cc1 [Example 18, 4-[1-(4-Methoxy-phenyl)-1H-imidazol-4-yl]-5-methyl-3-phenyl-isoxazole]"
8,17.7 nM,"Cc1onc(-c2cccc(F)c2)c1-c1cn(-c2ccc(C(=O)NC3CC3)cc2)cn1 [Example 98, N-Cyclopropyl-4-{4-[3-(3-fluoro-phenyl)-5-methyl-isoxazol-4-yl]-imidazol-1-yl}-benzamide]"
9,27 nM,"Cc1onc(-c2cccc(F)c2)c1-c1cn(-c2ccc(C(=O)NCCO)cc2)cn1 [Example 101, 4-{4-[3-(3-Fluoro-phenyl)-5-methyl-isoxazol-4-yl]-imidazol-1-yl}-N-(2-hydroxy-ethyl)-benzamide]"
10,25.6 nM,"Cc1onc(-c2ccc(F)cc2)c1-c1cn(-c2cccc(C#N)c2)cn1 [Example 122, 3-{4-[3-(4-Fluoro-phenyl)-5-methyl-isoxazol-4-yl]-imidazol-1-yl}-benzonitrile]"
11,31.5 nM,"CSc1ccc(-n2cnc(-c3c(-c4ccccc4)noc3C)c2)cc1 [Example 21, 5-Methyl-4-[1-(4-methylsulfanyl-phenyl)-1H-imidazol-4-yl]-3-phenyl-isoxazole]"
12,11.9 nM,"Cc1onc(-c2ccc(F)cc2)c1-c1cn(-c2ccc(C(=O)NC3CCCC3)cc2)cn1 [Example 126, N-Cyclopentyl-4-{4-[3-(4-fluoro-phenyl)-5-methyl-isoxazol-4-yl]-imidazol-1-yl}-benzamide]"
13,2.7 nM,"Cc1onc(-c2ccccc2)c1-c1cn(-c2ccc(C(=O)NC3CCC3)cc2)cn1 [Example 75, N-Cyclobutyl-4-[4-(5-methyl-3-phenyl-isoxazol-4-yl)-imidazol-1-yl]-benzamide]"
